From US20140128352A1, “COMPOUNDS AND METHODS FOR MODULATING MITOCHONDRIAL METABOLISM AND REACTIVE OXYGEN SPECIES PRODUCTION” (Buck Institute for Research on Aging, priority 2012, published 2014)
Entries after “also recorded” stand apart in the source; their conditions may differ.

Key:
[1] = molecular target: T1, site IF (Rattus norvegicus, UniProt Q5XIH3); test: Relationship of site IF ROS production to steady state matrix NAD(P)H reduction; format: biochemical; conditions: high NADH reduction (>90%)
T1 construct: freshly isolated muscle mitochondria were assayed; from tissue; host or cells: rat skeletal muscle mitochondria (Wistar, Harlan Laboratories)
T1 sequence (Q5XIH3 21-464 limits assumed): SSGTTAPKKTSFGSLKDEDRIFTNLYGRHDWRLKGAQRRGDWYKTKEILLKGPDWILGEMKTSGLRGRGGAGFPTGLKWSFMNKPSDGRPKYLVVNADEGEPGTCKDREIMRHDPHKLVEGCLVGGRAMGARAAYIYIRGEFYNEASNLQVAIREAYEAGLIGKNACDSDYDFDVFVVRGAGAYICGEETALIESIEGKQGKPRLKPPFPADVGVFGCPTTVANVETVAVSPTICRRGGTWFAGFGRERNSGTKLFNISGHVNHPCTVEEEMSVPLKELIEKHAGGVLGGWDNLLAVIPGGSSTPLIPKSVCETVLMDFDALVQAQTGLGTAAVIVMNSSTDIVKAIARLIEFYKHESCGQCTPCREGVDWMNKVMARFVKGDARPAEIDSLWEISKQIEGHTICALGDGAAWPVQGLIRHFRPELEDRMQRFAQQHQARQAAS
Method: The rate of ROS production from site IF is linked to the reduction state of the NAD(P)H pool in the mitochondrial matrix (Treberg et al., 2011; Quinlan et al, submitted). Therefore, to evaluate the mechanism of action of putative IF ROS inhibitors, the effect of candidate compounds on the relationship between site IF ROS production and NAD(P)H reduction was tested.

[2] = molecular target: T2, GPDH (Rattus norvegicus, UniProt P35571); test: Retest of GPDH ROS production (expanded microplate panel / cuvette); format: biochemical; conditions: microplate or cuvette
T2 construct: from tissue; host or cells: rat skeletal muscle mitochondria (Wistar, Harlan Laboratories)
T2 sequence (P35571 43-727): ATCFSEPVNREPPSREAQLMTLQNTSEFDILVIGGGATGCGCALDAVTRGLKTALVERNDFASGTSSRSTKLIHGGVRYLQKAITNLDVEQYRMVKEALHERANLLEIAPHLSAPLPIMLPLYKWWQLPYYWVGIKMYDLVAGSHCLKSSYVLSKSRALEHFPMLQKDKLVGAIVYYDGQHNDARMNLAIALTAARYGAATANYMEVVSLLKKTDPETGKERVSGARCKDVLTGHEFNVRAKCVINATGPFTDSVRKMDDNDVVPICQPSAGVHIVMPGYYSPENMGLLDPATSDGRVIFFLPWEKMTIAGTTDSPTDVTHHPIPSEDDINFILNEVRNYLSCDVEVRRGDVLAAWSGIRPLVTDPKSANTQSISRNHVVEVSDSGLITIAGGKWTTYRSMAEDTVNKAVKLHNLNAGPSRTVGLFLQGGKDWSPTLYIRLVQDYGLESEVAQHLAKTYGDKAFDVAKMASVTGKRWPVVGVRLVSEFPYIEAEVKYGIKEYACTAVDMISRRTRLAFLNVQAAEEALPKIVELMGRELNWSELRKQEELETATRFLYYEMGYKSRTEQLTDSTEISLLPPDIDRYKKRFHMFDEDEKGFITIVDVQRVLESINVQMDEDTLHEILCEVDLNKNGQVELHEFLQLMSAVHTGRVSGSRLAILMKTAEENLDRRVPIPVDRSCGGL
Method: Compounds identified as site-selective hits as well as structural analogs were re-sourced from ChemBridge and dissolved in DMSO as 80 mM stocks. Master Titration Plates were prepared manually by serially diluting 80 mM compound stocks between 0.08 and 80 mM on 96-well microplates. Four compounds were titrated in duplicate on each plate. Additional DMSO controls were interspersed across these plates to serve as local normalization controls during analysis since two-way median polishing was not appropriate. Just prior to use, compounds were diluted 100-fold with standard buffer (10X). The same known inhibitor positive controls were included on each plate as during high-throughput screening.
The five core ROS assays and single ΔΨm assay were carried out as in the initial high-throughput screen. In addition, several assays were included to help validate the specificity of the compounds for a given site of production. All compounds were titrated against separate assays targeting IQ ROS and IIIQo ROS using subsaturating (0.5 mM final) succinate. […] Specifically, ΔΨm was monitored separately with 5 mM succinate (in the presence of 4 μM rotenone) in addition to glutamate and malate as before. The use of different substrates was designed to reveal compounds that disrupt mitochondrial function in a substrate specific manner.
Most frequently, these changes involved the use of different substrates to supply electrons from an alternative entry point in the chain. If a site of ROS production is being targeted selectively by a compound, then in many cases the supply of electrons should not influence the effectiveness of this compound at suppressing ROS production. […]
The fluorescence values in each well were scaled in relation to the intra-plate DMSO and known inhibitor controls as in the high-throughput screen except that median values for local interspersed DMSO wells (3-6 wells) were used rather than just the 8 DMSO wells in columns 1 and 12. […]

SMILES	ROS production from site IF in relation to NADH reduction [1]	effect on GPDH ROS on retesting [2]
Cc1ccc(C)c(CN(CCCN(C)C)CCCN(C)C)c1 [Compound 32]	lowers the amount of ROS production from site IF as the matrix NADH pool becomes strongly reduced; also recorded: the expected ROS production was suppressed	
O=C(O)CSc1cccc(C(=O)Nc2ccc(Br)cc2)c1 [Compound 47]		progressively inhibited GPDH ROS
O=C(O)CCC(=O)Nc1ccc(-c2nc3cc4ccccc4cc3[nH]2)cc1 [Compound 61]		more potent inhibitor of GPDH-specific ROS, ΔΨm, and respiration
